In brackets after ≈: the same amount, converted by molar mass.
Legend:
[1] = Solubility of AGN in various aqueous solutions at 35° ± 0.5° C. (Table I); assay type: physicochemical
[2] = Solubility of AGN in PEG 400; assay type: physicochemical; details: peg 400, organic solvent or mixture
[3] = Saturated solubility of AGN in the vehicle of the gels (HPLC), with Student's t-test against gel B; assay type: physicochemical; details: for solubility: gel vehicle with propionic acid, propionic acid for carbomer
Method: To determine the saturated solubility of the drug in the vehicle of each of the 18 gel formulations, solvent systems containing the same ingredients as the gels were prepared. The saturated solubility was determined once in solutions of the vehicle without carbomer and base, and another time by substituting propionic acid for carbomer in order to ease filtration of the solution while keeping the ionic strength of the solution as close to that of the gel as possible. The solutions were filtered through a 0.45 μm filter to remove any crystals which may have formed. The resulting solutions were then diluted and their drug content was assayed using High Performance Liquid Chromatography (HPLC) as described in Method HL036.
(§1) The saturated solubility values, and slopes of the line obtained from the plot of % drug released vs. square root of time for each gel were analyzed statistically. […] RS/Discover® was used to calculate equations which fit the data and to construct response surfaces.

[4] = In vitro release of AGN from the 0.1% gels, slope of % drug released vs. square root of time; assay type: physicochemical; details: Table XVIII, beyond release of 10% of the drug
Method: The release of AGN through each of the 0.1% gels was studied using a previously developed release method. The collected fractions were then assayed directly using HPLC Method HL036.
The data generated from the assay of the collected fractions for each gel were used to plot the release profile of the drug as the % drug released vs. square root of time. For each release profile, the slope of the linear region containing at least 6 points was calculated using linear regression. The standard deviation and correlation coefficient of each slope was also calculated.
as §1
Drug release was studied from all […] formulated gels as described previously. The release profiles for each gel were an average of six runs, and were plotted as % Drug released vs. Square root of time.
In order to compare the release rates of drug from each formulation, the slope of the linear portion of the plot of % Drug released vs. Square root of time was computed for each of the 18 gels. The slope for each plot was obtained as an average of six runs and based on a correlation coefficient (R^2)>0.94800.

[5] = Stability of AGN formulations; assay type: physicochemical
[6] = Treatment of acne and psoriasis; set-up: species or system humans; details: in vivo

- solubility ([1]; 0.07% Polysorbate 40, 35° C.): 3.7 ± 0.6 µg/mL (≈ 10.5 µM)
- solubility ([1]; 0.15% Polysorbate 40, 35° C.): 9.2 ± 1.4 µg/mL (≈ 26.2 µM)
- solubility ([1]; 0.30% Polysorbate 40, 35° C.): 18.3 ± 1.8 µg/mL (≈ 52.1 µM)
- solubility ([1]; 0.50% Polysorbate 40, 35° C.): 33.2 ± 0.3 µg/mL (≈ 94.5 µM)
- solubility ([1]; 1% Oleth-20/Water, 35° C.): 73.3 ± 3 µg/mL (≈ 209 µM)
- solubility ([1]; 2% Oleth-20/Water, 35° C.): 149.2 ± 0.6 µg/mL (≈ 425 µM)
- solubility ([1]; 4% Oleth-20/Water, 35° C.): 311 ± 7 µg/mL (≈ 885 µM)
- Avg. Solubility ([1]; 20% Ethanol/Water, 35° C.): Not Detected
- Avg. Solubility ([1]; 20% PEG-400/Water, 35° C.): Not Detected
- solubility ([1]; 96% Oleth-20/Water, 35° C.): 435.2 ± 1.1 µg/mL (≈ 1240 µM)
- Avg. Solubility ([1]; 100% Water, 35° C.): Not Detected
- solubility ([1]; organic solvent or mixture, 40% Ethanol/Water, 35° C.): 147 ± 20.9 µg/mL (≈ 419 µM)
- solubility ([1]; organic solvent or mixture, 40% PEG-400/Water, 35° C.): 4.4 ± 0.5 µg/mL (≈ 12.5 µM)
- solubility ([1]; organic solvent or mixture, 60% Ethanol/Water, 35° C.): 22235 ± 7.8 µg/mL (≈ 63300 µM)
- solubility ([1]; organic solvent or mixture, 60% PEG-400/Water, 35° C.): 89.6 ± 1.1 µg/mL (≈ 255 µM)
- solubility ([1]; organic solvent or mixture, 80% Ethanol/Water, 35° C.): 8220 ± 221 µg/mL (≈ 23400 µM)
- solubility ([1]; organic solvent or mixture, 80% PEG-400/Water, 35° C.): 2160 ± 89.9 µg/mL (≈ 6150 µM)
- solubility in water (in words) ([1]; water): extremely low
- solubility [2]: 2200 µg/mL (≈ 6260 µM)
- drug present in the aqueous based gel in the form of solid particles ([3]; from solubility data): approximately 90%
- solubility ([3]; hexylene glycol 0%, polysorbate 40 0.0%, poloxamer 407 0.0%): 14.5 ± 0.3 µg/mL (≈ 41.3 µM)
- solubility ([3]; hexylene glycol 0%, polysorbate 40 0.0%, poloxamer 407 0.2%): 67.9 ± 4.4 µg/mL (≈ 193 µM)
- solubility ([3]; hexylene glycol 0%, polysorbate 40 0.0%, poloxamer 407 0.4%): 87.4 ± 6.6 µg/mL (≈ 249 µM)
- solubility ([3]; hexylene glycol 0%, polysorbate 40 0.2%, poloxamer 407 0.0%): 52.3 ± 2.7 µg/mL (≈ 149 µM)
- solubility ([3]; hexylene glycol 0%, polysorbate 40 0.2%, poloxamer 407 0.2%): 69.7 ± 3.2 µg/mL (≈ 198 µM)
- solubility ([3]; hexylene glycol 0%, polysorbate 40 0.2%, poloxamer 407 0.4%): 80 ± 4 µg/mL (≈ 228 µM)
- solubility ([3]; hexylene glycol 0%, polysorbate 40 0.4%, poloxamer 407 0.0%): 89.3 ± 8.8 µg/mL (≈ 254 µM)
- solubility ([3]; hexylene glycol 0%, polysorbate 40 0.4%, poloxamer 407 0.2%): 77.5 ± 0.8 µg/mL (≈ 221 µM)
- solubility ([3]; hexylene glycol 0%, polysorbate 40 0.4%, poloxamer 407 0.4%): 86.7 ± 6 µg/mL (≈ 247 µM)
- solubility ([3]; hexylene glycol 2%, polysorbate 40 0.0%, poloxamer 407 0.0%): 20.9 ± 1.7 µg/mL (≈ 59.5 µM)
- solubility ([3]; hexylene glycol 2%, polysorbate 40 0.0%, poloxamer 407 0.2%): 73.7 ± 9 µg/mL (≈ 210 µM)
- solubility ([3]; hexylene glycol 2%, polysorbate 40 0.0%, poloxamer 407 0.4%): 86.3 ± 2.6 µg/mL (≈ 246 µM)
- solubility ([3]; hexylene glycol 2%, polysorbate 40 0.2%, poloxamer 407 0.0%): 75.9 ± 3.5 µg/mL (≈ 216 µM)
- solubility ([3]; hexylene glycol 2%, polysorbate 40 0.2%, poloxamer 407 0.2%): 93.8 ± 0.1 µg/mL (≈ 267 µM)
- solubility ([3]; hexylene glycol 2%, polysorbate 40 0.2%, poloxamer 407 0.4%): 102 ± 2.9 µg/mL (≈ 290 µM)
- solubility ([3]; hexylene glycol 2%, polysorbate 40 0.4%, poloxamer 407 0.0%): 98 ± 11.7 µg/mL (≈ 279 µM)
- solubility ([3]; hexylene glycol 2%, polysorbate 40 0.4%, poloxamer 407 0.2%): 130 ± 6.2 µg/mL (≈ 370 µM)
- solubility ([3]; hexylene glycol 2%, polysorbate 40 0.4%, poloxamer 407 0.4%): 118 ± 3.8 µg/mL (≈ 336 µM)
- rate of drug release over time [4]: remains constant even after three hours
- stabilization of alcoholic solutions containing AGN ([5]; alcoholic solutions with BHT (preformulation report)): stabilized by BHT
- stability of laboratory formulation of AGN ([5]; prepared without ascorbic acid): poor stability
SMILES: CCOC(=O)c1ccc(C#Cc2ccc3c(c2)C(C)(C)CCS3)nc1 [AGN]
- activity in the treatment of acne and psoriasis [6]: active in the treatment of acne and psoriasis

— patent publication US6258830A, “Stable gel formulation for topical treatment of skin conditions” (Allergan Sales, Inc., priority 1999, dated 2001)
